“Also recorded” adds a separate entry of the source. Each block holds one compound with its values, some of them ahead of it.
How the values were obtained:
[1] = test system: pancreatic adenocarcinoma cell lines; assay: Growth, BrdU incorporation and apoptosis of pancreatic cancer cell lines (results stated for the lines together); type: cell-based, human; conditions: for pancreatic cancer cell growth or survival: drug treatment vs untreated control cells, NS-398 up to 25 μM, sodium salicylate up to 100 μM, sulindac sulfone up to 300 μM, FIG. 3B, 5B
Method: (§1) The small chemical inhibitors were used at the following final concentrations: up to 250 μM for sulindac (Sigma), up to 300 μM for sulindac sulfone (Calbiochem or ICN), NS-398 up to 25 μM (Calbiochem), sodium salicylate up to 100 μM (Calbiochem). […] To test for drug sensitivity, the cells were plated in control medium or in medium containing the drug of interest for 2 to 5 days. The culture media was changed every 48 hrs. The images showing cell morphology were taken with a Nikon inverted microscope.
(§2) Cells were pulsed with 10 μM BrdU for two hours and then harvested and fixed. BrdU incorporation was detected with a fluorescein isothiocyanate conjugated anti-BrdU antibody (BD Biosciences) and total DNA was stained with 7-AAD (BD Biosciences). FACS analysis was performed according to the BD Biosciences BrdU flow kit manual. Cells in S-phase were defined as the BrdU-positive cell population with a DNA content between 2N and 4N. According to the manual, apoptotic cells were defined as a subpopulation of G0/G1 cells with DNA content lower than the diploid amount (<2N).
(§3) The cell lines were plated the day prior to transfection at a density of 8×10^4 cells/well in a 24-well plate. The luciferase reporter constructs used included: Top-Flash and Fop-Flash containing multimerized Tcf-Lef binding sites or nonfunctional sites, respectively; TK-Luc (Promega); and GliBS containing 8×Gli binding sites upstream of the TK minimal promoter (Sasaki et al., Development, 124:1313-1322, 1997). In different experiments, the reporter constructs were co-transfected with an expression vector containing a dominant-negative form of Lef1 or the endogenous Wnt inhibitor Icat. The dominant negative Lef1 (gift from S. Pleasure) was generated by cloning the 63 amino acid N-terminal deleted form of Lef1 into the pEF5 plasmid. This construct also contains an IRES-EGFP cassette. The cDNA coding for the Icat protein was cloned into pIRES2-EGFP (BD Biosciences Clontech). Transfections were performed using the Effectene transfection reagent […] according to the user's manual. A Renilla luciferase plasmid (Promega) was included to control for transfection efficiency. Transfected cells were cultured in medium containing serum. […] Cells were harvested 24 hrs after transfection, and luciferase activity was assayed using the Dual Luciferase kit (Promega), according to the user's manual.
Small interfering RNA (siRNA) oligonucleotides against β-catenin containing two thymidine residues (dTdT) at the 3′ end of the sequence (5′-[…] […] T-3′ set forth as SEQ ID NO:57) were used for treatment of cancer cells as described (Verma et al., Clin Cancer Res, 9:1291-1300, 2003). The GLI1 siRNA (sense 5′-[…] […]-3′ set forth as SEQ ID NO:58) was also used as described (Sanchez et al., Proc Natl Acad Sci USA 101:12561-12566, 2004). Small interfering RNA against GLI2 was ordered against the target sequence 5-[…] […] A-3′, set forth as SEQ ID NO:59). […] Cells were transfected with oligofectamine (Invitrogen) according to the user's manual, with a final siRNA concentration of 100 or 300 nM. Transfected cells were incubated for 48 hrs before harvesting.

Panc1.28 = assay: Sensitivity of pancreatic adenocarcinoma cells to drug treatment (cell proliferation, survival); type: cell-based, human; conditions: FIG. 6
Method: (§4) Human pancreatic adenocarcinoma cell lines HPAC, SW1990, Mpanc-96, SU86.86, PL45, Panc10.05 Panc2.03 and Panc8.13 were obtained from ATCC; cell lines MiaPaCa2, Panc1, CFPAC-1, HPAFII, Capan-2, AsPC1, Hs766T and BxPC3 were a gift from Schering Plough; cell lines COLO357, L3.3, L3.6 pl and L3.6 sl were a gift from I. Fidler; cell lines Panc3.27, Panc4.21, Panc5.04, Panc2.13, Panc1.28 and Panc6.03 were a gift from E. Jaffee. BxPC3 and the Panc cell lines were grown in RPMI medium (Gibco) supplemented with 10% FBS, L-glutamine and penicillin/streptomycin; medium for the Panc cells was also supplemented with insulin-transferrin-selenium (Gibco). The CFPAC-1, Panc1, AsPC1, Hs766T, L3.6sl and L3.6pl were grown in DMEM without phenol red (CellGro), supplemented with 10% FBS. Derivation and culture of PDC cells was as described (Schreiber et al., Gastroenterology, 127:250-260, 2004).
as §1, §2

Panc10.05 = assay: as above; type: cell-based, human; conditions: Panc 10.05; FIG. 6
Method: as §4, §1, §2

[2] = test system: Wnt signaling (Top-Flash reporter); assay: Fop/Top-Flash luciferase reporter assay; type: cell-based, human; conditions: for Top-Flash reporter activity (Wnt signaling): CFPAC-1, BxPC3, L3.6sl, Panc4.21, 24 hrs after transfection, sulindac 250 μM, sulindac sulfone 150 μM, cyclopamine 10 μM, or co-transfection
Method: as §3
For each Fop-luciferase or Top-luciferase experiment, a renilla luciferase construct was included. For each experimental condition (drug treatment, co-transfection or siRNA), triplicate Top- and Fop-luciferase samples were analyzed. To equilibrate the total vector-DNA (or siRNA) amount in all samples, equivalent amounts of an empty expression vector or unrelated siRNAs were transfected into control samples. The following equations were used to obtain the normalized luciferase values and the relative (fold) activation. The firefly luciferase (Fop and Top) values were divided by the renilla luciferase values to obtain the normalized luciferase values. The normalized Top values for each condition were divided by the Fop values of the same condition (e.g., untreated Top/untreated Fop; drug-treated Top/drug-treated Fop). […] To minimize the number of bars in each figure, only representative average Fop values are included in the graphs.

Tcf4 = assay: Immunofluorescence of Tcf expression in pancreatic cancer cells; type: cell-based, human; conditions: cyclopamine for 24 hrs (FIG. 4C) or sulindac-treated
Tcf1 = assay: as above; type: cell-based, human; conditions: pancreatic cancer cells (Panc4.21); cyclopamine for 24 hrs (FIG. 4C) or sulindac-treated
[3] = test system: Hedgehog signaling (GliBS-luc reporter); assay: GliBS-luciferase reporter assay; type: cell-based, human; conditions: BxPC3 cells; cyclopamine 10 μM
Method: The cell lines were plated the day prior to transfection at a density of 8×10^4 cells/well in a 24-well plate. The luciferase reporter constructs used included: Top-Flash and Fop-Flash containing multimerized Tcf-Lef binding sites or nonfunctional sites, respectively; TK-Luc (Promega); and GliBS containing 8×Gli binding sites upstream of the TK minimal promoter (Sasaki et al., Development, 124:1313-1322, 1997). In different experiments, the reporter constructs were co-transfected with an expression vector containing a dominant-negative form of Lef1 or the endogenous Wnt inhibitor Icat. The dominant negative Lef1 (gift from S. Pleasure) was generated by cloning the 63 amino acid N-terminal deleted form of Lef1 into the pEF5 plasmid. This construct also contains an IRES-EGFP cassette. The cDNA coding for the Icat protein was cloned into pIRES2-EGFP (BD Biosciences Clontech). Transfections were performed using the Effectene transfection reagent […] according to the user's manual. A Renilla luciferase plasmid (Promega) was included to control for transfection efficiency. Transfected cells were cultured in medium containing serum. […] Cells were harvested 24 hrs after transfection, and luciferase activity was assayed using the Dual Luciferase kit (Promega), according to the user's manual. […]

BxPC3 = assay: Sensitivity of pancreatic adenocarcinoma cells to drug treatment (cell proliferation, apoptosis); type: cell-based, human; conditions: vs untreated controls, FIG. 3B
Method: as §4, §1, §2

L3.6sl = assay: as above; type: cell-based, human; conditions: vs untreated controls, FIG. 3B
Method: as §4, §1, §2

Panc4.21 = assay: as above; type: cell-based, human; conditions: vs untreated controls, FIG. 3B
Method: as §4, §1, §2

L3.6sl tumors = assay: Subcutaneous tumor treatment in nude mice; type: in vivo, CD-1 nude mice
Method: (§5) A total of 0.1 ml Hanks' balanced salt solution and matrigel (1:1) containing 2×10^6 cells was injected subcutaneously into CD-1 nude mice (Charles River Laboratories). Tumors were grown for 4 days to a minimum volume of 125 mm^3. Treatment was initiated simultaneously for all subjects. Mice were injected with vector alone (peanut oil: PBS 7:3 v/v) or with a sulindac solution (3 mg/mouse/day) daily for 5 days. Sulindac sulfone was administered orally (1.5 mg/mouse/day). At the end of the treatment period, tumors were excised from mice, weighed and photographed.
Individual or combined treatment was initiated after tumors were palpable.

CFPAC-1 tumors = assay: Subcutaneous tumor treatment in nude mice; type: in vivo, CD-1 nude mice; conditions: treated for five days vs controls, sulindac 3 mg/mouse/day injected, sulindac sulfone 1.5 mg/mouse/day orally
Method: as §5

BxPC3 tumors = assay: Subcutaneous tumor treatment in nude mice; type: in vivo, CD-1 nude mice
Method: as §5

Solubility = type: physicochemical; conditions: required oral application
CFPAC-1 = assay: Sensitivity of pancreatic adenocarcinoma cells to drug treatment (cell proliferation, apoptosis); type: cell-based, human; conditions: CFPAC-1 (CFPAC); vs untreated controls; FIG. 3B, 5
Method: The culture media was changed every 48 hrs.
as §2

[4] = sulindac sulfone orally 1.5 mg/mouse/day, five days
[5] = treated for five days vs untreated controls, sulindac 3 mg/mouse/day injected, sulindac sulfone 1.5 mg/mouse/day orally

Compound: CS(=O)(=O)Nc1ccc([N+](=O)[O-])cc1OC1CCCCC1 [NS-398]
pancreatic cancer cell growth or survival [1]: Neither NS-398 (blocks COX-2 activity) nor salicylate (blocks COX-2 transcription) showed any measurable effect
pancreatic cancer cell growth or survival ([1]; listed as NS398): comparable growth to untreated control cells

Compound: CC1=C2C[C@H]3[C@@H](CC=C4C[C@@H](O)CC[C@@]43C)[C@@H]2CC[C@]12O[C@@H]1C[C@H](C)CN[C@H]1[C@H]2C [cyclopamine, 11-deoxojervine]
sensitivity / survival (phase contrast images) (Panc1.28): not sensitive
sensitivity / survival (phase contrast images) (Panc10.05): not sensitive
reduction of Wnt signaling ([2]; BxPC3 cells, cyclopamine 10 μM): ~23%
Tcf4 expression (Tcf4): efficiently abolished
Tcf4 expression (Tcf4; listed as Cyclopamine): inhibits Tcf4 and Tcf1 expression
Tcf1 expression (Tcf1): inhibits Tcf4 and Tcf1 expression; also recorded: reduce expression
reduction of Hedgehog signaling [3]: 17%

Compound: O=C([O-])c1ccccc1O.[Na+] [sodium salicylate]
pancreatic cancer cell growth or survival [1]: comparable growth to untreated control cells
pancreatic cancer cell growth or survival ([1]; listed as salicylate): Neither NS-398 (blocks COX-2 activity) nor salicylate (blocks COX-2 transcription) showed any measurable effect

Compound: CC1=C(CC(=O)O)c2cc(F)ccc2/C1=C\c1ccc(S(C)(=O)=O)cc1 [sulindac sulfone]
cell growth (BxPC3): strongly inhibits growth
cell growth (L3.6sl): strongly inhibits growth
cell growth (Panc4.21): strongly inhibits growth
sensitivity / survival (phase contrast images) (Panc1.28): not sensitive
sensitivity / survival (phase contrast images) (Panc10.05): not sensitive
cell proliferation as measured by BrdU incorporation ([1]; 75 μM sulindac sulfone, 5 μM cyclopamine or both, FIG. 4H): inhibits cell proliferation
pancreatic cancer cell growth or survival [1]: blocked Wnt signaling and cell survival
reduction of tumor mass (L3.6sl tumors; [4]): 50%
tumor growth (L3.6sl tumors; [5]): reduced
tumor growth (volume, size) (CFPAC-1 tumors): largely unaffected
reduction of tumor mass (BxPC3 tumors; [4]): 60%
tumor growth (BxPC3 tumors; [5]): reduced
solubility (Solubility): limited solubility
Top-Flash reporter activity (Wnt signaling) [2]: inhibit Wnt activity; also recorded: generally more effective than sulindac in blocking Wnt signaling
Top-Flash reporter activity (Wnt signaling) ([2]; listed as Sulindac sulfone): blocked Wnt signaling
cell growth (proliferation, apoptosis) (CFPAC-1): only mildly affected; also recorded: diminishes growth

Top-Flash reporter activity (Wnt signaling) [2]: reduction of Top-Flash activity
Compound: ICAT: endogenous Wnt inhibitor; cDNA cloned into pIRES2-EGFP expression vector and transfected
cell proliferation (BrdU incorporation) after transfection ([1]; four pancreatic cancer cell lines, 48 hours after transfection, siRNA 100 nM or 300 nM, FIG. 2C, 2D): strongly inhibits growth; also recorded: significantly reduced

— patent US20090012018A1, “Inhibition of pancretic cancer cell growth” (priority 2004, published 2009)
